The target of one assay is T1, FGFR1 (Homo sapiens, UniProt P11362).
T1 construct: purchased Millipore
The assay is described as follows: ELISA kinase assay, FGFR1 enzymatic activity. The following applies: for inhibition at 0.01 µM / inhibition at 0.1 µM / inhibition at 1 µM / FGFR1 Inhibition (%): mean of two separate experiments; for IC50: mean ± SD from two separate experiments. It counts as biochemical. The method, then:
The effects of compounds on the activities of indicated (FGFR1 and c-Met) kinases were determined using enzyme-linked immunosorbent assays (ELISAs) with purified recombinant proteins. Briefly, 20 μg/mL poly (Glu, Tyr)4:1 (Sigma, St. Louis, MO, USA) was precoated in 96-well plates as a substrate. A 50-μL aliquot of 10 μmol/L ATP solution diluted in kinase reaction buffer (50 mmol/L HEPES (pH 7.4), 50 mmol/L MgCl2, 0.5 mmol/L MnCl2, 0.2 mmol/L Na3VO4, and 1 mmol/L DTT) was added to each well; 1 μL of various concentrations of compounds diluted in 1% DMSO (v/v) (Sigma) were then added to each reaction well. DMSO (1%, v/v) was used as the negative control. The kinase reaction was initiated by the addition of purified tyrosine kinase proteins FGFR1 (Millipore, Darmstadt, Germany) or c-Met (Millipore) diluted in 49 μL of kinase reaction buffer. After incubation for 60 min at 37 °C, the plate was washed three times with phosphate-buffered saline (PBS) containing 0.1% Tween 20 (T-PBS). Anti-phosphotyrosine (PY99) antibody (Sanra Cruz, Dallas, TX, USA) (100 μL; 1:500, diluted in 5 mg/mL bovine serum albumin (BSA) T-PBS) was then added. After a 30-min incubation at 37 °C, the plate was washed three times, and 100 μL of horseradish peroxidase-conjugated goat anti-mouse IgG (Calbiochem, Shanghai, China) (1:2000, diluted in 5 mg/mL BSA T-PBS) was added. The plate was then incubated at 37 °C for 30 min, and washed three times. A 100-μL aliquot of a solution containing 0.03% H2O2 and 2 mg/mL o-phenylenediamine in 0.1 mol/L citrate buffer (pH 5.5) was added. The reaction was terminated by the addition of 50 μL of 2 mol/L H2SO4 as the color changed, and the plate was analyzed using a multi-well spectrophotometer (SpectraMAX 190, Molecular Devices, Palo Alto, CA, USA) at 490 nm. The inhibition rate (%) was calculated using the following equation:IR = [1 − (A490/A490control)] × 100%.(1) where IR, A490, and A490control are the inhibition rate, the absorbance value of the tested compound at 490 nm, and the absorbance value of the negative control compound at 490 nm, respectively. The IC50 values were calculated from the inhibition curves in two separate experiments.
A general note: ELISA stands for enzyme-linked immunosorbent assay.

In assay [1] the test system is KG1 leukemia cell line harboring FGFR1OP-FGFR1 fusion. Kind of assay: Cell proliferation assay in KG1 cells (SRB or MTT, 72 h). The format is cell-based. The following applies: Homo sapiens, KG-1, mean ± SD from two separate experiments, read-out: KG1 IC50 (antiproliferation activity). The method, then:
Cell proliferation was examined in a FGFR1-translocated KG1 leukemia cell line harboring FGFR1OP-FGFR1 fusion. The original KG1 cell line was purchased from ATCC (CRL-8031), and cultured according the ATCC standard protocol. Cells were seeded in 96-well tissue culture plates. On the next day, the cells were exposed to various concentrations of compounds and further cultured for 72 h. Cell proliferation was then determined using sulforhodamine B (SRB, from Sigma-Aldrich, St Louis, MO, USA) or the thiazolyl blue tetrazolium bromide (MTT, from Sigma-Aldrich, St Louis, MO, USA) assay. The IC50 values were calculated by concentration- response curve fitting using the four-parameter method.

The inhibition is the drop in the measured response relative to a control, in per cent.

T1 sequence (P11362 22-822): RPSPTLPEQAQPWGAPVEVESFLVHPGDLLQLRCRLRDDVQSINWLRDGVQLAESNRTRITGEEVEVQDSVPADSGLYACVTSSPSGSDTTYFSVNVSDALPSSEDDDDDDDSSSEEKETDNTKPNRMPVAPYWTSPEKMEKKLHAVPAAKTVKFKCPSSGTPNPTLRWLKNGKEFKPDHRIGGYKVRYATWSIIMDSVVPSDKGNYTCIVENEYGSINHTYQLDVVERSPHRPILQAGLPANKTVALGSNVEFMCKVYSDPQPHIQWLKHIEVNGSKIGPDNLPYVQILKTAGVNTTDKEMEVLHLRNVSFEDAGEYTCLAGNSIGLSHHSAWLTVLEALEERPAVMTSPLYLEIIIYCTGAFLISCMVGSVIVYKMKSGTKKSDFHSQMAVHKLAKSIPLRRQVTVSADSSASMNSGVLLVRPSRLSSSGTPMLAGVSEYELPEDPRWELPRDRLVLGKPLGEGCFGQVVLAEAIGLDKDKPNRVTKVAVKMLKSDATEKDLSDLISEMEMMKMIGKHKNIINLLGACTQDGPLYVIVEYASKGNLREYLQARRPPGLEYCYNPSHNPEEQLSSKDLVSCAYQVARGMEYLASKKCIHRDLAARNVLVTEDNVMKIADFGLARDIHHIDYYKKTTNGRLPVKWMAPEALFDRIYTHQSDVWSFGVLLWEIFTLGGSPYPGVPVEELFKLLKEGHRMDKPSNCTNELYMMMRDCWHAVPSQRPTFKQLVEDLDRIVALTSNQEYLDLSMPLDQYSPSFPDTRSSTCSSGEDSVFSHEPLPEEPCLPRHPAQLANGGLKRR

In turn, `O=S(=O)(c1c[nH]cn1)n1ccc2ncc(-c3cn[nH]c3)nc21` [Compound 27, 5-((1H-Imidazol-4-yl)sulfonyl)-3-(1H-pyrazol-4-yl)-5H-pyrrolo[2,3-b]pyrazine] showed an inhibition at 0.01 µM against FGFR1 (0.01 μM (10 nM)) of 27.9%. 0.1 µM produced 71.9% inhibition against FGFR1 (0.1 μM). On FGFR1 (1 μM), this compound had an inhibition at 1 µM of 90.7%. For the same compound, the figures for the IC50 (against FGFR1; in assay [1]) were 15.7 ± 4.8 nM and 187 ± 17.2 nM, respectively.

`Cn1cnc(S(=O)(=O)n2ccc3ncc(-c4cn[nH]c4)nc32)c1` [Compound 28, 5-((1-Methyl-1H-imidazol-4-yl)sulfonyl)-3-(1H-pyrazol-4-yl)-5H-pyrrolo[2,3-b]pyrazine]: the inhibition at 0.01 µM against FGFR1 (0.01 μM (10 nM)) worked out at 12.5%. The compound further came in with an inhibition at 0.1 µM on FGFR1 (0.1 μM) of 63.2%. For the same compound, the inhibition at 1 µM at FGFR1 (1 μM) amounted to 88.8%. In addition, the values for the IC50 (against FGFR1; in assay [1]) were 15.4 ± 3 nM and 98.5 ± 19.1 nM, respectively.

At FGFR1 (0.01 μM (10 nM)), `CCn1cnc(S(=O)(=O)n2ccc3ncc(-c4cn[nH]c4)nc32)c1` [Compound 29, 5-((1-ethyl-1H-imidazol-4-yl)sulfonyl)-3-(1H-pyrazol-4-yl)-5H-pyrrolo[2,3-b]pyrazine] had an inhibition at 0.01 µM of 53.7%. At FGFR1 (0.1 μM), this compound showed an inhibition at 0.1 µM of 79.5%. The inhibition at 1 µM against FGFR1 (1 μM) was 94.6%. Moreover, the IC50 at FGFR1 is 3 ± 0.7 nM; in assay [1], 17.4 ± 8.7 nM.

Regarding `O=S(=O)(c1cnc2cccnn12)n1ccc2ncc(-c3cn[nH]c3)nc21` [Compound 35, 5-(Imidazo[1,2-b]pyridazin-3-ylsulfonyl)-3-(1H-pyrazol-4-yl)-5H-pyrrolo[2,3-b]pyrazine], the inhibition at 0.01 µM against FGFR1 (0.01 μM (10 nM)) stood at 31.8%. The compound further gave an inhibition at 0.1 µM against FGFR1 (0.1 μM) of 68.7%. In addition, on FGFR1 (1 μM), the inhibition at 1 µM stood at 90.6%.

For “Methyl 2-(4-(5-((1-(2-fluoroethyl)-1H-imidazol-4-yl)sulfonyl)-5H-pyrrolo[2,3-b]pyrazin-3-yl)-1H-pyrazol-1-yl)acetate [Compound 17]”, the “FGFR1 Inhibition (%)” value on FGFR1 (0.01 μM (10 nM)) is listed as −3.3%; on FGFR1 (0.1 μM), 15.6%; on FGFR1 (1 μM) it was 56.8%.

For the origin of these results see PMC6017193, “Structure-Based Discovery of a Series of 5H-Pyrrolo[2,3-b]pyrazine FGFR Kinase Inhibitors” (Molecules : A Journal of Synthetic Chemistry and Natural …, 2018).
